Experimental data from patent publication US20260083865A1, “PROSTATE SPECIFIC MEMBRANE ANTIGEN (PSMA) LIGANDS AND USE THEREOF” (priority 2022, published 2026).
Numbered stars: 1 amine (or outer) side, 2 acyl side, 3 side chain; on linkers, the order of the positions; unused ones are H or OH. Bridge positions count the residues as written; N and C are the ends. Square brackets hold non-standard residues; d marks the D form. Peptide text beside a SMILES is read from it. * marks the point of attachment. TtdsdLys(DOTA)NH2 = NC(=O)[C@@H](CCCCNC(=O)CN1CCN(CC(=O)O)CCN(CC(=O)O)CCN(CC(=O)O)CC1)NC(=O)CCC(=O)NCCCOCCOCCOCCCN*; X9 = C=C(N([C@@H](Cc1ccc(Cl)cc1)C(=O)[*:2])[*:1])C(C)(C)NC(=O)[C@@H](NC(C)=O)[C@@H](C)O; DOTA = O=C(O)CN1CCN(CC(=O)O)CCN(CC(=O)*)CCN(CC(=O)O)CC1; Phe(4-Cl) = N[C@@H](Cc1ccc(Cl)cc1)C(=O)O; Arg(Me) = CNC(=N)NCCC[C@H](N)C(=O)O; Lys(iPr) = CC(C)NCCCC[C@H](N)C(=O)O; NMeR = CN[C@@H](CCCNC(=N)N)C(=O)O; X1 = O=C(CC1CCN([*:1])CC1)[*:2]; Cit = NC(=O)NCCC[C@H](N)C(=O)O; Lys(Me) = CNCCCC[C@H](N)C(=O)O; Tle = CC(C)(C)[C@H](N)C(=O)O; αMeP = C[C@@]1(C(=O)O)CCCN1; Nle = CCCC[C@H](N)C(=O)O; Orn = NCCC[C@H](N)C(=O)O; Aib = CC(C)(N)C(=O)O; Guanidino = N=C(N)N*; Sar = CNCC(=O)O

How the values were obtained:
[1] = biological target: T1, Fc-fusion protein of human PSMA (hPSMA-Fc) (Homo sapiens, UniProt Q04609); test: Surface plasmon resonance assay (Biacore T200, single cycle kinetic); assay type: binding; details: SPR, hPSMA-Fc, single cycle kinetic, 25° C.; category; read-out: pKD CAT (converted)
T1 construct: purchased Acro Biosystems PSA-H5264
In short: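 KD, expressed as pKD, came from 1:1 Langmuir fits of reference- and buffer-blank-subtracted SPR data. The runs were single-cycle kinetics at 25° C in HBST/0.1% DMSO over human PSMA-Fc, captured to ~1000 RU on a peptide-coated CM5 surface and regenerated with 10 mM glycine pH 1.5.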

[2] = biological target: T2, PSMA-expressing C4-2 cells (Homo sapiens, UniProt Q04609); test: FACS binding assay (competition with 50 nM PSM-0183); details: FACS binding, C4-2 cells, competition with 50 nM PSM-0183; category; read-out: pIC50 [C4-2] CAT (converted)
T2 construct: PSMA-expressing C4-2 cells (ATCC, Cat. No. CRL-3314) were cultured in RPMI-1640; host or cells: C4-2 cells
In short: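 Competition format: fluorescent tracer PSM-0183 (50 nM) displaced from PSMA on C4-2 cells by a test compound titration over 1 h at 4 °C. Bound tracer was quantified as flow-cytometric AF488 median fluorescence after washing. Four-parameter logistic fits of MFI data gave IC50 and pIC50.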

T1 sequence (Q04609 44-750 limits assumed): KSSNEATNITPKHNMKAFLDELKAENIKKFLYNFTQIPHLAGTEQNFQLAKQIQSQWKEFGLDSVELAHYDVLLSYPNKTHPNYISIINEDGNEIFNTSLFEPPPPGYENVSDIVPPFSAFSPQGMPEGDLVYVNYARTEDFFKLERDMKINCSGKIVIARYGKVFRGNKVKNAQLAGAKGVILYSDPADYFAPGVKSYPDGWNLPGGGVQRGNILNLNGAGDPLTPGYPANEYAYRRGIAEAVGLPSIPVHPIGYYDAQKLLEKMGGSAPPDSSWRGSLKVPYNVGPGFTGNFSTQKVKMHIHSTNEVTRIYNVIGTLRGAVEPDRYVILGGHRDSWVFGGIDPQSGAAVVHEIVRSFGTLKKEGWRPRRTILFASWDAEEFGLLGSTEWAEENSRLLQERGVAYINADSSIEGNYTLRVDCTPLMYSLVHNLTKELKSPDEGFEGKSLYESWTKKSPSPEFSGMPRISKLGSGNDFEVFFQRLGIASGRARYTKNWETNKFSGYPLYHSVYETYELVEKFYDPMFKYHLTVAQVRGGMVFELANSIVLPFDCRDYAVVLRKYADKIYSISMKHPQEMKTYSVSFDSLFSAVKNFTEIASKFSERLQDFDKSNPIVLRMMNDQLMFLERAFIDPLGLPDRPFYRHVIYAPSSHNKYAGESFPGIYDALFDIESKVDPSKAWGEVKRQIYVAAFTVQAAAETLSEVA
T2 sequence (Q04609 whole entry): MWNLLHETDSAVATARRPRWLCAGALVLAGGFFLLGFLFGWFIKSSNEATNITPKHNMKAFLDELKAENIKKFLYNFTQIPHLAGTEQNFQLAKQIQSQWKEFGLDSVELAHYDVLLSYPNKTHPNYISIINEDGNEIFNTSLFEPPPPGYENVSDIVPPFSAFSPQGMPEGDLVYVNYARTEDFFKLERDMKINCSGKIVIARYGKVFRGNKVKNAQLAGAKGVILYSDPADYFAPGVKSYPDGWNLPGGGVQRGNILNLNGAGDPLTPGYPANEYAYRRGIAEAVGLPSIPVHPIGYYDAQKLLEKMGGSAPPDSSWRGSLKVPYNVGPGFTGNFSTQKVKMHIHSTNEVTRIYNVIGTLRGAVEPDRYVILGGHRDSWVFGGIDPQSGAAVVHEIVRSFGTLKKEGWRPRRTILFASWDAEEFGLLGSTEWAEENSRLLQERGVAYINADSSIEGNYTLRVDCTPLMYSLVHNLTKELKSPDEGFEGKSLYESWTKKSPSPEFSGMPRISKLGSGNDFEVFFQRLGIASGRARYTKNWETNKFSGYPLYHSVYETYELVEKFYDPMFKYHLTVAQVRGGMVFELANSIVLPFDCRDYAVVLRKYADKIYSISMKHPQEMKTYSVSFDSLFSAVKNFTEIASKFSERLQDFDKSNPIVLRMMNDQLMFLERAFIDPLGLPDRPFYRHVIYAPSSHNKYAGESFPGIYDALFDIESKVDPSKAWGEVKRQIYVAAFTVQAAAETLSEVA

| Kd [1] [nM] | IC50 [2] [nM] | Structure (SMILES) |
| --- | --- | --- |
| < 12.6 | < 200 | CC(=O)NC(C)(C)C(=O)N[C@@H](Cc1ccccc1)C(=O)N[C@H]1CSSC[C@@H](C(=O)N[C@H](C(=O)N[C@H](C(N)=O)[C@@H](C)O)C(C)(C)C)NC(=O)[C@H](CC(N)=O)NC(=O)C(C)(C)NC(=O)[C@H](CCCNC(=N)N)NC(=O)[C@H](CCCCN)NC1=O [PSM-0228, Ac-Aib-Phe-[Cys-Lys-Arg-Aib-Asn-Cys]-Tle-Thr-NH2] (Ac-[Aib]FCKR[Aib]NC[Tle]T-NH2; disulfide 3-8) |
| < 12.6 | < 200 | CC(=O)N[C@H](C(=O)NC(C)(C)C(=O)N[C@@H](Cc1ccccc1)C(=O)N[C@H]1CSSC[C@@H](C(=O)N[C@H](C(N)=O)C(C)(C)C)NC(=O)[C@H](CC(N)=O)NC(=O)C(C)(C)NC(=O)[C@H](CCCNC(=N)N)NC(=O)[C@H](CCCCN)NC1=O)[C@@H](C)O [PSM-0230, Ac-Thr-Aib-Phe-[Cys-Lys-Arg-Aib-Asn-Cys]-Tle-NH2] (Ac-T[Aib]FCKR[Aib]NC[Tle]-NH2; disulfide 4-9) |
| < 12.6 | < 200 | CC(=O)N[C@H](C(=O)NC(C)(C)C(=O)N[C@@H](Cc1ccccc1)C(=O)N[C@H]1CSSC[C@@H](C(=O)N[C@H](C(=O)N[C@H](C(=O)NCCCOCCOCCOCCCNC(=O)CCC(=O)N[C@H](CCCCNC(=O)CN2CCN(CC(=O)O)CCN(CC(=O)O)CCN(CC(=O)O)CC2)C(N)=O)[C@@H](C)O)C(C)(C)C)NC(=O)[C@H](CC(N)=O)NC(=O)[C@H](C)NC(=O)[C@H](CCCNC(=N)N)NC(=O)[C@H](CCCCN)NC1=O)[C@@H](C)O [PSM-0231, Ac-Thr-Aib-Phe-[Cys-Lys-Arg-Ala-Asn-Cys]-Tle-Thr-Ttds-lys(DOTA)-NH2] (Ac-T[Aib]FCKRANC[Tle]T-{TtdsdLys(DOTA)NH2}; disulfide 4-9) |
| < 12.6 | < 200 | CC(=O)N[C@H](C(=O)NC(C)(C)C(=O)N[C@@H](Cc1ccccc1)C(=O)N[C@H]1CSSC[C@@H](C(=O)N[C@H](C(=O)N[C@H](C(N)=O)[C@@H](C)O)C(C)(C)C)NC(=O)[C@H](CC(N)=O)NC(=O)CN(C)C(=O)[C@H](CCCNC(=N)N)NC(=O)[C@H](CCCCN)NC1=O)[C@@H](C)O [PSM-0232, Ac-Thr-Aib-Phe-[Cys-Lys-Arg-Nmg-Asn-Cys]-Tle-Thr-NH2] (Ac-T[Aib]FCKR[Sar]NC[Tle]T-NH2; disulfide 4-9) |
| < 12.6 | < 200 | CC(=O)N[C@H](C(=O)NC(C)(C)C(=O)N[C@@H](Cc1ccccc1)C(=O)N[C@H]1CSSC[C@@H](C(=O)N[C@H](C(=O)N[C@H](C(N)=O)[C@@H](C)O)C(C)(C)C)NC(=O)[C@H](CC(N)=O)NC(=O)[C@]2(C)CCCN2C(=O)[C@H](CCCNC(=N)N)NC(=O)[C@H](CCCCN)NC1=O)[C@@H](C)O [PSM-0233, Ac-Thr-Aib-Phe-[Cys-Lys-Arg-Pam-Asn-Cys]-Tle-Thr-NHZ] (Ac-T[Aib]FCKR[αMeP]NC[Tle]T-NH2; disulfide 4-9) |
| 126 to 501 | 200 to 1260 | CC(=O)N[C@H](C(=O)NC(C)(C)C(=O)N[C@@H](Cc1ccccc1)C(=O)N[C@H]1CSSC[C@@H](C(=O)N[C@H](C(=O)N[C@H](C(N)=O)[C@@H](C)O)C(C)(C)C)NC(=O)[C@H](CC(N)=O)NC(=O)C(C)(C)NC(=O)[C@H](CCCNC(=N)N)N(C)C(=O)[C@H](CCCCN)NC1=O)[C@@H](C)O [PSM-0235, Ac-Thr-Aib-Phe-[Cys-Lys-Nmr-Aib-Asn-Cys]-Tle-Thr-NH2] (Ac-T[Aib]FCK[NMeR][Aib]NC[Tle]T-NH2; disulfide 4-9) |
| < 12.6 | < 200 | CCCC[C@@H]1NC(=O)[C@@H](NC(=O)[C@H](Cc2ccc(Cl)cc2)NC(=O)C(C)(C)NC(=O)[C@@H](NC(C)=O)[C@@H](C)O)CSSC[C@@H](C(=O)N[C@H](C(=O)N[C@H](C(N)=O)[C@@H](C)O)C(C)(C)C)NC(=O)[C@H](CC(N)=O)NC(=O)C(C)(C)NC(=O)[C@H](CCC(=O)NC(=N)N)NC1=O [PSM-0236, Ac-Thr-Aib-Pcf-[Cys-Nle-Gln(Gu)-Aib-Asn-Cys]-Tle-Thr-NH2] (Ac-T[Aib][Phe(4-Cl)]C[Nle]E(Guanidino)[Aib]NC[Tle]T-NH2; disulfide 4-9) |
| < 12.6 | < 200 | CC(=O)N[C@H](C(=O)NC(C)(C)C(=O)N[C@@H](Cc1ccc(Cl)cc1)C(=O)N[C@H]1CSSC[C@@H](C(=O)N[C@H](C(=O)N[C@H](C(N)=O)[C@@H](C)O)C(C)(C)C)NC(=O)[C@H](Cc2c[nH]c3ccccc23)NC(=O)C(C)(C)NC(=O)[C@H](CCCNC(N)=O)NC(=O)[C@H](CCCCN)NC1=O)[C@@H](C)O [PSM-0238, Ac-Thr-Aib-Pcf-[Cys-Lys-Cit-Aib-Trp-Cys]-Tle-Thr-NH2] (Ac-T[Aib][Phe(4-Cl)]CK[Cit][Aib]WC[Tle]T-NH2; disulfide 4-9) |
| < 12.6 | < 200 | C=C(N[C@@H](Cc1ccc(Cl)cc1)C(=O)N[C@H]1CSSC[C@@H](C(=O)N[C@H](C(=O)N[C@H](C(N)=O)[C@@H](C)O)C(C)(C)C)NC(=O)[C@H](CCCNC(=N)N)NC(=O)C(C)(C)NC(=O)[C@H](CCCNC(N)=O)NC(=O)[C@H](CCCCN)NC1=O)C(C)(C)NC(=O)[C@@H](NC(C)=O)[C@@H](C)O [PSM-0240, Ac-Thr-Aib-Pcf-[Cys-Lys-Cit-Aib-Arg-Cys]-Tle-Thr-NH2] (H-[X9]CK[Cit][Aib]RC[Tle]T-NH2; disulfide 2-7) |
| < 12.6 | < 200 | CNC(=N)NCCC[C@@H]1NC(=O)[C@H](CCCCNC(C)C)NC(=O)[C@@H](NC(=O)[C@H](Cc2ccc(Cl)cc2)NC(=O)C(C)(C)NC(=O)[C@@H](NC(=O)CC2CCN(C(=O)CN3CCN(CC(=O)O)CCN(CC(=O)O)CCN(CC(=O)O)CC3)CC2)[C@@H](C)O)CSSC[C@@H](C(=O)N[C@H](C(=O)N[C@H](C(N)=O)[C@@H](C)O)C(C)(C)C)NC(=O)[C@H](CC(N)=O)NC(=O)C(C)(C)NC1=O [PSM-0244, DOTA-Cmp-Thr-Aib-Pcf-[Cys-Kip-Arg(Me)-Aib-Asn-Cys]-Tle-Thr-NH2] ({DOTA}-[X1]T[Aib][Phe(4-Cl)]C[Lys(iPr)][Arg(Me)][Aib]NC[Tle]T-NH2; disulfide 5-10) |
| < 12.6 | < 200 | C[C@@H](O)[C@H](NC(=O)[C@@H](NC(=O)[C@@H]1CSSC[C@H](NC(=O)[C@H](Cc2ccc(Cl)cc2)NC(=O)C(C)(C)NC(=O)[C@@H](NC(=O)CC2CCN(C(=O)CN3CCN(CC(=O)O)CCN(CC(=O)O)CCN(CC(=O)O)CC3)CC2)[C@@H](C)O)C(=O)N[C@@H](CCCCN)C(=O)N[C@@H](CCCN)C(=O)NC(C)(C)C(=O)N[C@@H](CC(N)=O)C(=O)N1)C(C)(C)C)C(N)=O [PSM-0245, DOTA-Cmp-Thr-Aib-Pcf-[Cys-Lys-Orn-Aib-Asn-Cys]-Tle-Thr-NH2] ({DOTA}-[X1]T[Aib][Phe(4-Cl)]CK[Orn][Aib]NC[Tle]T-NH2; disulfide 5-10) |
| < 12.6 | < 200 | CNCCCC[C@@H]1NC(=O)[C@@H](NC(=O)[C@H](Cc2ccc(Cl)cc2)NC(=O)C(C)(C)NC(=O)[C@@H](NC(=O)CC2CCN(C(=O)CN3CCN(CC(=O)O)CCN(CC(=O)O)CCN(CC(=O)O)CC3)CC2)[C@@H](C)O)CSSC[C@@H](C(=O)N[C@H](C(=O)N[C@H](C(N)=O)[C@@H](C)O)C(C)(C)C)NC(=O)[C@H](CC(N)=O)NC(=O)[C@@H](C)NC(=O)[C@H](CCCNC(=N)NC)NC1=O [PSM-0246, DOTA-Cmp-Thr-Aib-Pcf-[Cys-Lys(Me)-Arg(Me)-ala-Asn-Cys]-Tle-Thr-NH2] ({DOTA}-[X1]T[Aib][Phe(4-Cl)]C[Lys(Me)][Arg(Me)][dA]NC[Tle]T-NH2; disulfide 5-10) |
